Assay results from patent publication US20240199676A1, “ANTIVIRAL COMPOUNDS AND METHODS OF MAKING AND USING THE SAME” (Gilead Sciences, Inc., priority 2022, published 2024).
Read-outs that look alike come from different tables or passages of the source.

What was measured:
[1] = tested on: Human Rhinovirus 14 (HRV14) in H1-HeLa cells; assay: H1-HeLa HRV-CTG 384-well Assay (Ex. Y), HRV14; type: cell-based; conditions: Rhinovirus B, 96 h, read-out: EC50 H1-HeLa_HRV14_HRV-CTG 384-well Assay (per Ex Y)
Text: Example Y: H1-HeLa HRV-CTG 384-well Assay
H1-Hela cell line (ATCC, Manassas, VA, Cat #CRL-1958) was maintained in Dulbecco's […] (DMEM) (Corning, New York, NY, Cat #15-018CM) supplemented with 10% fetal bovine serum (FBS) (Hyclone, Logan, UT, Cat #SH30071-03), and 1× Penicillin-Streptomycin-L-Glutamine (Corning, New York, NY, Cat #30-009-CI). Cells were passaged 2 times per week to maintain sub-confluent densities and were used for experiments at passage 5-30. The Human Rhinovirus 1B (HRV1B) (ATCC, Manassas, VA, Cat #VR-1645) , Human Rhinovirus 14 (HRV14) (ATCC, Manassas, VA, Cat #VR-284), and Human Rhinovirus 16 (HRV16) (ATCC, Manassas, VA, Cat #BR-283) was obtained through ATCC. Viral infection was monitored by determining viability of H1-HeLa cells as described below.
(§1) Test molecules are prepared in 100% DMSO in 384-well polypropylene plates (Greiner, Monroe, NC, Cat #784201) with 8 compounds per plate in grouped replicates of 4 at 10 serially diluted concentrations (1:3). The serially diluted compounds were transferred to low dead volume Echo plates (Labcyte, Sunnyvale, CA, Cat #LP-0200).
The test compounds were spotted to 384-well assay plates (Greiner, Monroe, NC, Cat#781091) at 200 nL per well using an Echo acoustic dispenser (Labcyte, Sunnyvale, CA). H1-HeLa cells were harvested and suspended in DMEM (supplemented with 2% FBS and 1× Penicillin-Streptomycin-L-Glutamine) and seeded to the pre-spotted assay plates at 5,000 cells per well in 30 μL. HRV1B, HRV14, and HRV16 was diluted in DMEM (supplemented with 2% FBS and 1× Penicillin-Streptomycin-L-Glutamine) at 97.1 million Infectious Units (IU) per mL, 151 million IU per mL and 221 million IU per mL respectively. 10 μL of virus per well was added to the assay plates containing cells and compounds, for an MOI of 0.5, 1.0, and 0.25 respectively. The assay plates were incubated for 4 days at 37° C. and 5% CO2. At the end of incubation, Celltiter-Glo (Promega, Madison, WI, Cat #(Ga7573) was prepared. The assay plates and Celltiter-Glo reagent were equilibrated to room temperature for at least 15 minutes. 40 μL per well of Celltiter-Glo reagent was added and the plates were incubated at room temperature for 15 minutes before reading the luminescence signal on an EnVision multimode plate reader (Perkin Elmer, Waltham, MA). Rupintrivir was used as positive control and DMSO was used as negative control. Values were normalized to the positive and negative controls (as 0% and 100% replication, respectively) and data was fitted using non-linear regression analysis by Gilead's dose response tool. The EC50 value for each compound was defined as the concentration reducing viral replication by 50%.

[2] = tested on: Respiratory syncytial virus recombinant with luciferase (RSV-Luc5) in NHBE cells; assay: NHBE RSV-Luc5 384-well Assay (RSV FLUC NHBE 384 V2, Ex. W); type: cell-based; conditions: human respiratory syncytial virus, 72 h, read-out: EC50 RSV FLUC NHBE 384 V2 (per Ex. W)
Text: Example W: NHBE RSV-Luc5 384-well Assay (EC50 RSVFLUC NHBE-384)
Normal Human Bronchial Epithelial (NHBE) cells were purchased from Lonza (Walkersville, MD Cat #CC2540) and maintained in BEGM Bronchial Epithelial Cell Growth Medium BulletKit (Lonza CC-3170).
Cells were thawed, expanded, and were used for experiments at passage 2. Respiratory syncytial virus recombinant with luciferase (RSV-Luc5) (≥1×10^7 Infectious Units/mL (IU/mL) determined by TCID50) was purchased from Microbiologics (Saint Cloud, MN). Viral replication was determined in NHBE cells in the following manner.
as §1, with “Compounds” for “Test molecules”
The test compounds were spotted to 384-well assay plates (Greiner, Monroe, NC, Cat#781091) at 200 nL per well using an Echo acoustic dispenser (Labcyte, Sunnyvale, CA). NHBE cells were harvested and suspended in BEGM Bronchial Epithelial Cell Growth Medium BulletKit and seeded to the pre-spotted assay plates at 5,000 cells per well in 30 μL. RSV-Luc5 virus was diluted in BEGM Bronchial Epithelial Cell Growth Medium BulletKit at 500,000 Infectious Units (IU) per mL and 10 μL per well was added to the assay plates containing cells and compounds, for an MOI of 1. The assay plates were incubated for 3 days at 37° C. and 5% CO2. At the end of incubation, One-Glo reagent (Promega, Madison, WI, Cat #E6120) was prepared. The assay plates and One-Glo reagent were equilibrated to room temperature for at least 15 minutes. 40 μL per well of One-Glo reagent was added and the plates were incubated at room temperature for 15 minutes before reading the luminescence signal on an EnVision multimode plate reader (Perkin Elmer, Waltham, MA). Remdesivir was used as positive control and DMSO was used as negative control. Values were normalized to the positive and negative controls (as 0% and 100% replication, respectively) and data was fitted using non-linear regression analysis by Gilead's dose response tool. The EC50 value for each compound was defined as the concentration reducing the viral replication by 50%.

[3] = H1-HeLa cells, HRV14 MOI 1.0, 4 days, Celltiter-Glo

Compound	EC50 [1, 3]	EC50 [2]	EC50 ([1]; HRV14, H1-HeLa)
N#C[C@]1(COC(=O)C2CCC2)O[C@@H](c2ccc3c(N)ncnn23)[C@H](O)[C@@H]1O [Compound 8, ((2R,3S,4R,5S)-5-(4-aminopyrrolo[2,1-f][1,2,4]triazin-7-yl)-2-cyano-3,4-dihydroxytetrahydrofuran-2-yl)methyl cyclobutanecarboxylate]	5.66 µM	10.1 µM	–
N#C[C@]1(COC(=O)C2CCCCC2)O[C@@H](c2ccc3c(N)ncnn23)[C@H](O)[C@@H]1O [Compound 19, ((2R,3S,4R,5S)-5-(4-aminopyrrolo[2,1-f][1,2,4]triazin-7-yl)-2-cyano-3,4-dihydroxytetrahydrofuran-2-yl)methyl cyclohexanecarboxylate]	6.84 µM	10.9 µM	–
N#C[C@]1(COC(=O)Cc2ccccc2)O[C@@H](c2ccc3c(N)ncnn23)[C@H](O)[C@@H]1O [Compound 38, ((2R,3S,4R,5S)-5-(4-aminopyrrolo[2,1-f][1,2,4]triazin-7-yl)-2-cyano-3,4-dihydroxytetrahydrofuran-2-yl)methyl 2-phenylacetate]	–	10.6 µM	6.25 µM
CCC(CC)C(=O)OC[C@@]1(C#N)O[C@@H](c2ccc3c(N)ncnn23)[C@H](O)[C@@H]1O [Compound 9, ((2R,3S,4R,5S)-5-(4-aminopyrrolo[2,1-f][1,2,4]triazin-7-yl)-2-cyano-3,4-dihydroxytetrahydrofuran-2-yl)methyl 2-ethylbutanoate]	15.5 µM	9.47 µM	–
CCC(=O)OC[C@@]1(C#N)O[C@@H](c2ccc3c(N)ncnn23)[C@H](O)[C@@H]1O [Compound 5, ((2R,3S,4R,5S)-5-(4-aminopyrrolo[2,1-f][1,2,4]triazin-7-yl)-2-cyano-3,4-dihydroxytetrahydrofuran-2-yl)methyl propionate]	10.5 µM	7.78 µM	–
Cc1ccc(C(=O)OC[C@@]2(C#N)O[C@@H](c3ccc4c(N)ncnn34)[C@H](O)[C@@H]2O)cc1 [Compound 14, ((2R,3S,4R,5S)-5-(4-aminopyrrolo[2,1-f][1,2,4]triazin-7-yl)-2-cyano-3,4-dihydroxytetrahydrofuran-2-yl)methyl 4-methylbenzoate]	8.17 µM	9.6 µM	–
N#C[C@]1(COC(=O)[C@H]2CCC(=O)O2)O[C@@H](c2ccc3c(N)ncnn23)[C@H](O)[C@@H]1O [Compound 25, ((2R,3S,4R,5S)-5-(4-aminopyrrolo[2,1-f][1,2,4]triazin-7-yl)-2-cyano-3,4-dihydroxytetrahydrofuran-2-yl)methyl (R)-5-oxotetrahydrofuran-2-carboxylate]	6.01 µM	11.7 µM	–
CC1(C(=O)OC[C@@]2(C#N)O[C@@H](c3ccc4c(N)ncnn34)[C@H](O)[C@@H]2O)CCC1 [Compound 24, ((2R,3S,4R,5S)-5-(4-aminopyrrolo[2,1-f][1,2,4]triazin-7-yl)-2-cyano-3,4-dihydroxytetrahydrofuran-2-yl)methyl 1-methylcyclobutane-1-carboxylate]	6.34 µM	10.8 µM	–
CC(C)[C@H](N)C(=O)OC[C@@]1(C#N)O[C@@H](c2ccc3c(N)ncnn23)[C@H](O)[C@@H]1O [Compound 12, ((2R,3S,4R,5S)-5-(4-aminopyrrolo[2,1-f][1,2,4]triazin-7-yl)-2-cyano-3,4-dihydroxytetrahydrofuran-2-yl)methyl L-valinate]	6 µM	10.7 µM	–
CC(=O)OC[C@@]1(C#N)O[C@@H](c2ccc3c(NC(=O)C(C)C)ncnn23)[C@H](O)[C@@H]1O [Compound 23, ((2R,3S,4R,5S)-2-cyano-3,4-dihydroxy-5-(4-isobutyramidopyrrolo[2,1-f][1,2,4]triazin-7-yl)tetrahydrofuran-2-yl)methyl acetate]	49.8 µM	14.9 µM	–
CC(C)(C)CC(=O)OC[C@@]1(C#N)O[C@@H](c2ccc3c(N)ncnn23)[C@H](O)[C@@H]1O [Compound 13, ((2R,3S,4R,5S)-5-(4-aminopyrrolo[2,1-f][1,2,4]triazin-7-yl)-2-cyano-3,4-dihydroxytetrahydrofuran-2-yl)methyl 3,3-dimethylbutanoate]	50 µM	8.59 µM	–
CC(C)(CF)C(=O)OC[C@@]1(C#N)O[C@@H](c2ccc3c(N)ncnn23)[C@H](O)[C@@H]1O [Compound 29, ((2R,3S,4R,5S)-5-(4-aminopyrrolo[2,1-f][1,2,4]triazin-7-yl)-2-cyano-3,4-dihydroxytetrahydrofuran-2-yl)methyl 3-fluoro-2,2-dimethylpropanoate]	16.9 µM	13 µM	–
CC[C@@H](C)C(=O)OC[C@@]1(C#N)O[C@@H](c2ccc3c(N)ncnn23)[C@H](O)[C@@H]1O [Compound 37, ((2R,3S,4R,5S)-5-(4-aminopyrrolo[2,1-f][1,2,4]triazin-7-yl)-2-cyano-3,4-dihydroxytetrahydrofuran-2-yl)methyl (R)-2-methylbutanoate]	11.9 µM	9.93 µM	–
CCCC(=O)OC[C@@]1(C#N)O[C@@H](c2ccc3c(N)ncnn23)[C@H](O)[C@@H]1O [Compound 6, ((2R,3S,4R,5S)-5-(4-aminopyrrolo[2,1-f][1,2,4]triazin-7-yl)-2-cyano-3,4-dihydroxytetrahydrofuran-2-yl)methyl butyrate]	7.86 µM	7.69 µM	–
CC(C)(C)C(=O)OC[C@@]1(C#N)O[C@@H](c2ccc3c(N)ncnn23)[C@H](O)[C@@H]1O [Compound 10, ((2R,3S,4R,5S)-5-(4-aminopyrrolo[2,1-f][1,2,4]triazin-7-yl)-2-cyano-3,4-dihydroxytetrahydrofuran-2-yl)methyl pivalate]	10.9 µM	7.87 µM	–
N#C[C@]1(COC(=O)c2ccccc2)O[C@@H](c2ccc3c(N)ncnn23)[C@H](O)[C@@H]1O [Compound 2, ((2R,3S,4R,5S)-5-(4-aminopyrrolo[2,1-f][1,2,4]triazin-7-yl)-2-cyano-3,4-dihydroxytetrahydrofuran-2-yl)methyl benzoate]	23.9 µM	9.31 µM	–
CC(C)(C)CCC(=O)OC[C@@]1(C#N)O[C@@H](c2ccc3c(N)ncnn23)[C@H](O)[C@@H]1O [Compound 36, ((2R,3S,4R,5S)-5-(4-aminopyrrolo[2,1-f][1,2,4]triazin-7-yl)-2-cyano-3,4-dihydroxytetrahydrofuran-2-yl)methyl 4,4-dimethylpentanoate]	6.51 µM	10.8 µM	–
